Results from BigSolDB 2.1.

O=[N+]([O-])c1cn[nH]c1
solubility (mole fraction)
Details	in acetonitrile	in ethanol	in methanol	in water
278.15 K	0.0478	0.037	0.0491	0.00209
280.65 K	0.0491	0.0389	0.0502	0.00218
283.15 K	0.0508	0.0405	0.0517	0.00231
285.65 K	0.0524	0.0429	0.0532	0.00248
288.15 K	0.0541	0.045	0.0558	0.00268
290.65 K	0.0558	0.047	0.0583	0.00286
293.15 K	0.0576	0.0494	0.061	0.00315
295.65 K	0.0595	0.0521	0.0638	0.00339
298.15 K	0.0623	0.0549	0.067	0.0037
300.65 K	0.0648	0.0582	0.0698	0.00401
303.15 K	0.0674	0.0614	0.073	0.0044
305.65 K	0.0703	0.0647	0.0758	0.00477
308.15 K	0.0731	0.0677	0.0789	0.00526
310.65 K	0.0758	0.0714	0.0817	0.00586
313.15 K	0.079	0.0747	0.0848	0.00653
315.65 K	0.0828	0.0784	0.0885	0.00724
318.15 K	0.0872	0.0828	0.092	0.00802
